Changes are numbered by the printed parent chain. Read-outs that look alike come from different tables or passages of the source.
Columns and labels:
CYP2B4 F429H [1] = target: T1, CYP2B4 F429H (Oryctolagus cuniculus, UniProt P00178, F429H)
T1 sequence (P00178 1-491 F429H): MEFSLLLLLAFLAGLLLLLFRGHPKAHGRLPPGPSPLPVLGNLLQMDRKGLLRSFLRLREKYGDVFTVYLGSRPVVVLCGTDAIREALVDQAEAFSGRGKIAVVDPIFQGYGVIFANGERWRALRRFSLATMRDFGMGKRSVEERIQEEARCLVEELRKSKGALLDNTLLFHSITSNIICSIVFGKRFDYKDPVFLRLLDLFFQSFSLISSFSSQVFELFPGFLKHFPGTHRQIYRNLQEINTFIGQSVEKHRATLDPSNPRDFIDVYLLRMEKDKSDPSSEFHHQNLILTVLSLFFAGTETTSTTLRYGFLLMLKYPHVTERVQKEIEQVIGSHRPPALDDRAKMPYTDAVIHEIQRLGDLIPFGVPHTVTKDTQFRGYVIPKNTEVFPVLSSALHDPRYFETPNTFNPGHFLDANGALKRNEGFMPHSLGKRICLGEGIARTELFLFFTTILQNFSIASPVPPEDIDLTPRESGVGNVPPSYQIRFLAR
T1 sequence (P00388 1-678 partner): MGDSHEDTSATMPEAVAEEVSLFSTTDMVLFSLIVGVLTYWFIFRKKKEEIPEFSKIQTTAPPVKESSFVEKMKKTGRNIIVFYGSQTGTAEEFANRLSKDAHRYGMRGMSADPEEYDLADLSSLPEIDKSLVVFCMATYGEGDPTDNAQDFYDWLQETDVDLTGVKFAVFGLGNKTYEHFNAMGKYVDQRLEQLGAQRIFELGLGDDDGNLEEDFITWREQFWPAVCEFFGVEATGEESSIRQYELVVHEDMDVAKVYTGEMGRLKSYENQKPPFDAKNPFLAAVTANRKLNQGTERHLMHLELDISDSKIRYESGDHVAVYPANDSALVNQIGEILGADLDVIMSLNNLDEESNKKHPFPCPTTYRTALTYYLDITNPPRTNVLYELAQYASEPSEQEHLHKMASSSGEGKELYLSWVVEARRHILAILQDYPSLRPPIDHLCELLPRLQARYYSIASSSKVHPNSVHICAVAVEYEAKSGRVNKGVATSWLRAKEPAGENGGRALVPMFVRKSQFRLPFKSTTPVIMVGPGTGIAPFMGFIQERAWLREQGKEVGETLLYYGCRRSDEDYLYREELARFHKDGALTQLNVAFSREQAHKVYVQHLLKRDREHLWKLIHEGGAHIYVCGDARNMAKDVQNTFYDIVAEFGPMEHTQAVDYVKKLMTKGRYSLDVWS

CYP2B4 F429H [2] = target: T2, CYP2B4 F429H (Oryctolagus cuniculus, UniProt P00178, F429H); experiment: biochemical
T2 sequence (P00178 1-491 F429H): T1 sequence (P00178 1-491 F429H)

WT CYP2B4 [3] = target: T3, WT CYP2B4 (Oryctolagus cuniculus, UniProt P00178); details: 1 mM benzphetamine, 20 °C
T3 sequence (P00178 1-491): T1 sequence (P00178 1-491 F429H) with H429F

WT CYP2B4 [4] = target: T4, WT CYP2B4 (Oryctolagus cuniculus, UniProt P00178); experiment: N-demethylation of benzphetamine in purified reconstituted system; type: biochemical, rabbit; details: wild type; 1 mM benzphetamine, varied reductase
T4 sequence (P00178 1-491): T1 sequence (P00178 1-491 F429H) with H429F
T4 sequence (P00388 1-678 partner): T1 sequence (P00388 1-678 partner)

wild type (WT) CYP2B4 = target: T5, wild type (WT) CYP2B4 (Oryctolagus cuniculus, UniProt P00178); experiment: Substrate binding
T5 sequence (P00178 1-491): T1 sequence (P00178 1-491 F429H) with H429F

CYP2B4 F429H [5] = target: T2, CYP2B4 F429H; details: 1 mM benzphetamine, 20 °C
CYP2B4 F429H [6] = target: T2, CYP2B4 F429H; remark: listed apart in the source
P450 (CYP2B4) = experiment: Binding of redox mediator dyes to P450; details: data not shown

C[C@@H](Cc1ccccc1)N(C)Cc1ccccc1 [benzphetamine]
activity retained relative to wild type (N-demethylation of BP) (CYP2B4 F429H [1]; F429H vs wild type): 3.6% | Vmax (N-demethylation of BP) (CYP2B4 F429H [1]; F429H, 1 mM benzphetamine, varied reductase): 1.60 ± 0.05 nmol of product min^–1 (nmol of 450)^−1 | Kd (CYP2B4 F429H [2]; Ks, F429H, no reductase, no cyt b5, 15 °C): 900 ± 200 µM | Kd (CYP2B4 F429H [2]; Ks, F429H, no reductase, no cyt b5, 30 °C): 390 ± 80 µM | Kd (CYP2B4 F429H [2]; Ks, F429H, no reductase, with cyt b5, 15 °C): 150 ± 60 µM | Kd (CYP2B4 F429H [2]; Ks, F429H, with reductase, no cyt b5, 15 °C): 830 ± 220 µM | increase in Em on binding of benzphetamine (WT CYP2B4 [3]): 88 mV | redox potential Em with BP (WT CYP2B4 [3]; pH 7.4): –244 ± 7 mV | Vmax (N-demethylation of BP) (WT CYP2B4 [4]): 49 ± 5 nmol of product min^–1 (nmol of 450)^−1 | Kd (wild type (WT) CYP2B4; Ks, WT, no reductase, no cyt b5, 15 °C): 250 ± 7 µM | Kd (wild type (WT) CYP2B4; Ks, WT, no reductase, no cyt b5, 30 °C): 80 ± 20 µM | Kd (wild type (WT) CYP2B4; Ks, WT, no reductase, with cyt b5, 15 °C): 58 ± 6 µM | Kd (wild type (WT) CYP2B4; Ks, WT, with reductase, no cyt b5, 15 °C): 220 ± 10 µM | increase in Em on binding of benzphetamine (CYP2B4 F429H [5]): 15 mV | redox potential Em with BP (CYP2B4 F429H [5]; pH 7.4): –230 ± 8 mV | decreased affinity of mutant vs WT (CYP2B4 F429H [6]; 30 °C, F429H vs WT): 5 fold | enhancement of binding by cyt b5 (CYP2B4 F429H [6]; F429H, with vs without cyt b5): 5–6 fold

Cc1cc(C(C)(C)C)c(O)c(C(C)(C)C)c1 [butylated hydroxytoluene, 2,6-di-tert-butyl-4-methylphenol]
Kd (CYP2B4 F429H [2]): 1.82 ± 0.24 µM | Kd (wild type (WT) CYP2B4): 0.31 ± 0.14 µM

Nc1ccc2nc3ccc(N)cc3[n+](-c3ccccc3)c2c1.[Cl-] [phenosafranin]
spectral change on addition of dye to P450 (P450 (CYP2B4)): did not cause any spectral change

c1ccc(C[n+]2ccc(-c3cc[n+](Cc4ccccc4)cc3)cc2)cc1 [benzyl viologen]
spectral change on addition of dye to P450 (P450 (CYP2B4)): did not cause any spectral change

Reference: PMC4131899 (Biochemistry, 2014)
